The target in one series is T1, HIV-2 protease (Human immunodeficiency virus type 2 subtype A, UniProt P04584).
T1 construct: the coding region of the 99-amino acid protease; made in house; host or cells: Saccharomyces cerevisiae strain AB110, plasmid pHIV2PR115
Kind of series: biochemical. Particulars: 1M NaCl. On the procedure: The decapeptide was synthesized by conventional solid-state methods. Reactions were carried out and fractionated by HPLC. Conversion of the decapeptide to the two pentapeptides was quantitated by integration of the peak areas and comparison to product standard curves.
Enzymatic Inhibition. […] Each data point was done in triplicate and initial enzyme rates were fit to the Michaelis-Menten equation using a nonlinear regression program ("Enzfitter" from Biosoft).

Another series has as its target HIV-1 protease (Human immunodeficiency virus type 1 group M subtype B, UniProt P03369). Put plainly: biochemical.
Setting [1] is: HIV-1 Protease IC50 (μM) 1M NaCl.

Converted amounts (≈) assume the structure as drawn. Like-named read-outs stand apart in the source and are kept apart here.

T1 sequence (P04584 514-612 limits assumed): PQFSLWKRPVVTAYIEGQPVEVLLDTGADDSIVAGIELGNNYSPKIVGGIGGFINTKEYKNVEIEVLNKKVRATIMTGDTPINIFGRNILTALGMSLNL

Consider `OC1(c2ccc(Cl)cc2)CCN(CCC[Si](c2ccccc2)(c2ccccc2)c2ccccc2)CC1` [UCSF47, (3-[4-(4-chlorophenyl)-4-hydroxypiperidinyl)-1-propyl)triphenylsilane], for which the values for the IC50 on HIV-2 protease and on HIV-1 protease (setting [1]) were 1.5 µM and 90 µM, respectively. Moreover, the “HIV-1 Protease Therapeutic Index (LD50 /IC50)” value at HIV-1 protease is recorded as 0.2. Further, the CC50 at 6 h in “in vitro” worked out at 15 µM. In addition, in “physchem”, the solubility – broadly, how much of the substance goes into solution per volume – was more than 500 µM.
In the case of `OC1(c2ccc(Cl)cc2)CCN(CCCC2(c3cccc(-c4ccccc4)c3)SCCS2)CC1` [UCSF59], the IC50 – broadly, the concentration that inhibits the measured activity by half – amounted to 7 µM against HIV-2 protease and 8 µM on HIV-1 protease (setting [1]). Besides, the CC50 at 4 h in “in vitro” came to 45 µM. This compound also displayed a solubility in “physchem” of less than 500 µM.
Take `OC1(c2ccc(Cl)cc2)CCN(CCCC2(c3ccc(F)cc3)SCCCS2)CC1` [UCSF10, (1,3-propanethioacetal)-4-[4-(p-chlorophenyl)-4-hydroxypiperidinyl]-4'-fluorobutyrophenone]: the IC50 amounted to 88 µM at HIV-2 protease and 15 µM on HIV-1 protease (setting [1]). Further, the “HIV-1 Protease Therapeutic Index (LD50 /IC50)” value at HIV-1 protease came out at 2. This compound registered a CC50 at 6 h in “in vitro” of 30 µM. In the series “physchem”, this compound returned a solubility of less than 100 µM.
In the case of `OC1(c2ccc(Cl)cc2)CCN(CCCC2(c3ccccc3)OCCO2)CC1` [UCSF49], the results for the IC50 on HIV-2 protease and at HIV-1 protease (setting [1]) were 180 µM and 100 µM, respectively. Further, at HIV-1 protease, the “HIV-1 Protease Therapeutic Index (LD50 /IC50)” value worked out at 1.2. In “in vitro”, this compound yielded a CC50 at 6 h of 120 µM. For the same compound, in the series “physchem”, the solubility was less than 50 µM.
As for `C[C@@H]1SC(CCCN2CCC(O)(c3ccc(Cl)cc3)CC2)(c2ccc(F)cc2)S[C@@H]1C` (relative stereo) [UCSF64], the IC50 came out at 29 µM at HIV-2 protease and 16 µM at HIV-1 protease (setting [1]). Moreover, in “in vitro”, the CC50 at 6 h turned out to be 25 µM. In “physchem”, this compound registered a solubility of less than 50 µM.
As for `C=C(CCCN1CCC(O)(c2ccc(Cl)cc2)CC1)c1ccc(F)cc1` [UCSF37, 1-[4-(4-chlorophenyl)-4-hydroxypiperidinyl]-4-(4-fluorophenyl)-4-pentene], the IC50 was determined as 34 µM against HIV-2 protease and 39 µM against HIV-1 protease (setting [1]). Further, the “HIV-1 Protease Therapeutic Index (LD50 /IC50)” value at HIV-1 protease came to 1.3. For the same compound, in the series “in vitro”, the CC50 at 6 h was found to be 50 µM. Also, the solubility in “physchem” was less than 200 µM.
For the compound `OC1(c2ccc(Cl)cc2)CCN(CCCC2(c3ccc(F)cc3)OCCS2)CC1` (centres unmarked) [UCSF78], the IC50 at HIV-2 protease stood at 167 µM; at HIV-1 protease (setting [1]), 39 µM. This compound returned a CC50 at 6 h in “in vitro” of 35 µM. In addition, the solubility in the series “physchem” is more than 500 µM.
As to `CC(=O)OC1(c2ccc(Cl)cc2)CCN(CCCC(=O)c2ccc(F)cc2)CC1` [UCSF6, 4-[4-(p-chlorophenyl)-4-acetoxypiperidinyl]-4'-fluorobutyrophenone], the IC50 was 533 µM against HIV-2 protease and 725 µM against HIV-1 protease (1M NaCl). The “HIV-1 Protease Therapeutic Index (LD50 /IC50)” value on HIV-1 protease (LD50/IC50) came to 0.3. For the same compound, the CC50 at 6 h in “in vitro” was found to be 250 µM. Further, the solubility in the series “physchem” was more than 250 µM.
Regarding `C#CCC(CC#C)(CCN1CCC(O)(c2ccc(Cl)cc2)CC1)C(=O)c1ccc(F)cc1` [UCSF69], the figures for the IC50 on HIV-2 protease and against HIV-1 protease (setting [1]) were 60 µM and 50 µM, respectively. The CC50 at 6 h in “in vitro” was determined as 220 µM. In “physchem”, this compound displayed a solubility of less than 100 µM.
For `O=C(CCCN1CCC(O)(c2ccc(Cl)cc2)CC1)c1ccc(-c2ccccc2)cc1` [UCSF36, 4-[4-(p-chlorophenyl)-4-hydroxypiperidinyl]-4'-phenylbutyrophenone], the IC50 was found to be 53 µM against HIV-2 protease and 32 µM against HIV-1 protease (setting [1]). For the same compound, at HIV-1 protease, the “HIV-1 Protease Therapeutic Index (LD50 /IC50)” value is reported as 1.4. In the series “in vitro”, this compound returned a CC50 at 6 h of 50 µM. In the series “physchem”, the solubility is less than 50 µM.
For the compound `OC1(c2ccc(Cl)cc2)CCN(CCCC(O)(c2ccccc2)c2ccccc2-c2ccccc2)CC1` (centres unmarked) [UCSF56], the IC50 came to 11 µM at HIV-2 protease and 20 µM on HIV-1 protease (setting [1]). In “in vitro”, the CC50 at 4 h came to 20 µM. In the series “physchem”, this compound had a solubility of less than 500 µM.
In the case of `OC1(c2ccc(Cl)cc2)CCN(CCN(Cc2ccccc2)Cc2ccccc2)CC1` [UCSF46, 2-[4-(4-chlorophenyl)-4-hydroxypiperidinyl]-(N,N-dibenzyl)ethylamine], the IC50 was 34 µM at HIV-2 protease and 30 µM on HIV-1 protease (setting [1]). For the same compound, the “HIV-1 Protease Therapeutic Index (LD50 /IC50)” value at HIV-1 protease is on record as 0.7. The CC50 at 6 h in the series “in vitro” came to 20 µM. Also, in “physchem”, the solubility was more than 500 µM.
As to `O=C(CCCN1CCC(CO)(c2ccccc2)CC1)c1ccc(F)cc1` [UCSF60], the IC50 was more than 2500 µM against HIV-2 protease and 2500 µM against HIV-1 protease (setting [1]). Further, on HIV-1 protease, the “HIV-1 Protease Therapeutic Index (LD50 /IC50)” value is on record as more than 0.2. The same compound yielded a CC50 at 4 h in the series “in vitro” of more than 500 µM. Moreover, the solubility in the series “physchem” was more than 500 µM.
Take `O=C(CCCN1CCC(O)(c2ccc(Cl)cc2)CC1)c1ccccc1` [UCSF62]: the values for the IC50 against HIV-2 protease and against HIV-1 protease (setting [1]) were 40 µM and 100 µM, respectively. This compound registered a CC50 at 6 h in “in vitro” of 380 µM. For the same compound, the solubility in the series “physchem” is less than 250 µM.
As for `CC(CCN1CCC(O)(c2ccc(Cl)cc2)CC1)C(=O)c1ccc(F)cc1` (centres unmarked) [UCSF50], the IC50 on HIV-2 protease came out at 126 µM; at HIV-1 protease (setting [1]) it was 100 µM. For the same compound, in the series “in vitro”, the CC50 at 6 h came to 90 µM. For the same compound, the solubility in the series “physchem” was more than 500 µM.
Turning to `C=CC(O)(CCCN1CCC(O)(c2ccc(Cl)cc2)CC1)c1ccc(F)cc1` (centres unmarked) [UCSF40, 6-[4-(4-chlorophenyl)-4-hydroxypiperidinyl]-3-(4-fluorophenyl)hex-1-en-3-ol], the figures for the IC50 on HIV-2 protease and against HIV-1 protease (setting [1]) were 200 µM and 80 µM, respectively. For the same compound, the “HIV-1 Protease Therapeutic Index (LD50 /IC50)” value at HIV-1 protease is listed as 1.25. Also, in the series “in vitro”, the CC50 at 6 h is 100 µM. This compound also displayed a solubility in “physchem” of less than 100 µM.
With `O=C(CCC[N+]1([O-])CCC(O)(c2ccc(Cl)cc2)CC1)c1ccc(F)cc1` (centres unmarked) [UCSF3, 4-[4-(p-chlorophenyl)-4-hydroxy-N-oxopiperidinyl]-4'-fluorobutyrophenone], the values for the IC50 against HIV-2 protease and against HIV-1 protease (setting [1]) were 135 µM and 100 µM, respectively. For the same compound, the “HIV-1 Protease Therapeutic Index (LD50 /IC50)” value on HIV-1 protease is reported as more than 2.5. In “in vitro”, this compound displayed a CC50 at 6 h of more than 500 µM. The solubility in “physchem” is less than 250 µM.
For `OC1(c2ccc(Cl)cc2)CCN(CCCN(CCc2ccccc2)Cc2ccccc2)CC1` [UCSF61, 3-[4-(4-chlorophenyl)-4-hydroxypiperidinyl]-N-benzyl-N-(2-phenyl-ethyl)-propylamine], in that order: 230 µM, 220 µM, 0.2-0.4, 40 µM and less than 500 µM.
On to `C[C@@H]1SC(CCCN2CCC(O)(c3ccc(Cl)cc3)CC2)(c2ccc(F)cc2)S[C@H]1C` (relative stereo) [UCSF12, (trans-2,3-butanethioacetal)-4-[4-(p-chlorophenyl)-4-hydroxypiperidinyl]-4'-fluorobutyro-phenone], for which the values for the IC50 against HIV-2 protease and on HIV-1 protease (setting [1]) were 50 µM and 350 µM, respectively. Moreover, the “HIV-1 Protease Therapeutic Index (LD50 /IC50)” value at HIV-1 protease amounted to 0.5. Besides, in the series “in vitro”, the CC50 at 6 h amounted to 35 µM. This compound displayed a solubility in “physchem” of less than 250 µM.
For the compound `OC1(c2ccc(Cl)cc2)CCN(CCCC2(c3ccc(F)cc3)SCCCCS2)CC1` [UCSF23, (1,4-butanethioacetal)-4-[4-(p-chlorophenyl)-4-hydroxypiperidinyl]-4'-fluorobutyrophenone], the 50% inhibitory concentration (IC50) at HIV-2 protease was 71 µM; against HIV-1 protease (setting [1]), 20 µM. At HIV-1 protease, the “HIV-1 Protease Therapeutic Index (LD50 /IC50)” value is listed as 1.25. For the same compound, the CC50 at 6 h in the series “in vitro” came out at 25 µM. In addition, the solubility in “physchem” is more than 250 µM.
For `OC1(c2ccc(Cl)cc2)CCN(CCCC2(c3ccc(F)cc3)SCc3ccccc3CS2)CC1` [UCSF18, (1,2-benzene-dimethanethioacetal)-4-[4-(p-chlorophenyl)-4-hydroxypiperidinyl]-4'-fluorobutyrophenone], in that order: 10 µM, 25 µM, 1.4, 35 µM and more than 250 µM.
Take `OCCNN=C(CCCN1CCC(O)(c2ccc(Cl)cc2)CC1)c1ccc(F)cc1` [UCSF14]: the values for the concentration for half-maximal inhibition (IC50) at HIV-2 protease and against HIV-1 protease (setting [1]) were 90 µM and 50 µM, respectively. For the same compound, at HIV-1 protease, the “HIV-1 Protease Therapeutic Index (LD50 /IC50)” value came to 10. Further, the CC50 at 6 h in “in vitro” stood at 500 µM. This compound also came in with a solubility in the series “physchem” of 500 µM (≈ 217 µg/mL).
`O=C(CCCN1CCC(O)(c2ccc(Cl)cc2)CC1)c1ccccc1-c1ccccc1` [UCSF51, 4-(4-(p-chlorophenyl)-4-hydroxypiperidinyl)-2'-phenylbutyrophenone]: the 50% inhibitory concentration (IC50) at HIV-2 protease is 68 µM; at HIV-1 protease (setting [1]), 40 µM. Further, the CC50 at 6 h in “in vitro” came to 45 µM. The same compound had a solubility in the series “physchem” of less than 250 µM.
For `Cc1ccc(C(=O)CC(CN2CCC(O)(c3ccc(Cl)cc3)CC2)c2ccccc2)cc1` (centres unmarked) [UCSF43, 4-[4-(p-chlorophenyl)-4-hydroxypiperidinyl]-3-phenyl-4'-methylbutyrophenone], the figures for the IC50 at HIV-2 protease and at HIV-1 protease (setting [1]) were 27 µM and 50 µM, respectively. Also, the “HIV-1 Protease Therapeutic Index (LD50 /IC50)” value at HIV-1 protease is given as 7(1). The compound also yielded a CC50 at 6 h in the series “in vitro” of 350 µM. Moreover, the solubility in the series “physchem” is more than 500 µM.
Take `O=C(CCCN1CCC(O)(c2ccc(Cl)cc2)CC1)c1cccc(-c2ccccc2)c1` [UCSF52, 4-(4-(p-chlorophenyl)-4-hydroxypiperidinyl)-3'-phenylbutyrophenone]: the IC50 on HIV-2 protease was 19 µM; on HIV-1 protease (setting [1]), 20 µM. On HIV-1 protease, the “HIV-1 Protease Therapeutic Index (LD50 /IC50)” value came to 0.5. The CC50 at 6 h in the series “in vitro” came to 10 µM. The solubility in “physchem” was less than 250 µM.
Turning to `O=C(Cc1ccccc1)N(CCCN1CCC(O)(c2ccc(Cl)cc2)CC1)Cc1ccccc1` [UCSF66], the IC50 was 48 µM against HIV-2 protease and 70 µM against HIV-1 protease (setting [1]). The “HIV-1 Protease Therapeutic Index (LD50 /IC50)” value at HIV-1 protease amounted to 0.3. This compound showed a CC50 at 6 h in the series “in vitro” of 25 µM. The solubility in “physchem” was less than 250 µM.

The values above are taken from patent publication US5583000A, “Protease-binding compounds and methods of use” (priority 1993, dated 1996).
